From ChEMBL document CHEMBL5465560, “Selectivity Literature for EUbOPEN Chemogenomic Library” (2024)

How the values were obtained:
[1] = molecular target: T1, Ephrin type-A receptor 8 (Homo sapiens) (UniProt P29322); assay: Selectivity interaction (ProQinase) EUB0000171b EPHA8
T1 sequence (whole entry): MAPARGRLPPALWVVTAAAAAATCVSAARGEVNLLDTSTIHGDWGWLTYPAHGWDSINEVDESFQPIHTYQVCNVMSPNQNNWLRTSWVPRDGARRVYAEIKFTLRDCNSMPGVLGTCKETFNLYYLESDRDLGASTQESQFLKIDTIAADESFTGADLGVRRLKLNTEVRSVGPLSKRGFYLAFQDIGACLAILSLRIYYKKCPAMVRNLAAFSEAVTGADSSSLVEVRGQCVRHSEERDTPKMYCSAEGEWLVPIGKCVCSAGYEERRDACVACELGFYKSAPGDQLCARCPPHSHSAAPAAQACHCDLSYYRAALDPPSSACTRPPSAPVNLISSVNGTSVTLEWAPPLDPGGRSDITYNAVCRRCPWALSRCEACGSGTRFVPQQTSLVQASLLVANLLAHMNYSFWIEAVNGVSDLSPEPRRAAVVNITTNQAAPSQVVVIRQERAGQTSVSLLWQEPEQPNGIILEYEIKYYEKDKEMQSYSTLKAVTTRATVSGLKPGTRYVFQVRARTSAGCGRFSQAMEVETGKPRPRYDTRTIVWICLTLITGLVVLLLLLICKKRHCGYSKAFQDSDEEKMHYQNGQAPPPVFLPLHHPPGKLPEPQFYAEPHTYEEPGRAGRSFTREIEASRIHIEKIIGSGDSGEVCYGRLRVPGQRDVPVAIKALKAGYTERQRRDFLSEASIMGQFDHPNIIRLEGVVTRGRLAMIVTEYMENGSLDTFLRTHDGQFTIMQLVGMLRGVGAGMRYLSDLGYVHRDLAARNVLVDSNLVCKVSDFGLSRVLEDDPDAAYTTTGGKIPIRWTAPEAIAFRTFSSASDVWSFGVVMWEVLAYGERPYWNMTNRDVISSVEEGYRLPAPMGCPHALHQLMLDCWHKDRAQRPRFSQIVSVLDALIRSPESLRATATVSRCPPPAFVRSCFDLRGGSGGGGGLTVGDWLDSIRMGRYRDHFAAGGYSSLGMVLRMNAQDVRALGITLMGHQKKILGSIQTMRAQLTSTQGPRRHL

[2] = molecular target: Mitogen-activated protein kinase kinase kinase 9 (Homo sapiens) (UniProt P80192); assay: Selectivity interaction (KinomeScan (DiscoverX)) EUB0001079a MAP3K9; conditions: at 1 µM
[3] = molecular target: Dual specificity testis-specific protein kinase 1 (Homo sapiens) (UniProt Q15569); assay: Selectivity interaction (KinomeScan (DiscoverX)) EUB0001079a TESK1; conditions: at 1 µM
Chain of Dual specificity testis-specific protein kinase 1 (Homo sapiens) (Q15569 whole entry, looked up): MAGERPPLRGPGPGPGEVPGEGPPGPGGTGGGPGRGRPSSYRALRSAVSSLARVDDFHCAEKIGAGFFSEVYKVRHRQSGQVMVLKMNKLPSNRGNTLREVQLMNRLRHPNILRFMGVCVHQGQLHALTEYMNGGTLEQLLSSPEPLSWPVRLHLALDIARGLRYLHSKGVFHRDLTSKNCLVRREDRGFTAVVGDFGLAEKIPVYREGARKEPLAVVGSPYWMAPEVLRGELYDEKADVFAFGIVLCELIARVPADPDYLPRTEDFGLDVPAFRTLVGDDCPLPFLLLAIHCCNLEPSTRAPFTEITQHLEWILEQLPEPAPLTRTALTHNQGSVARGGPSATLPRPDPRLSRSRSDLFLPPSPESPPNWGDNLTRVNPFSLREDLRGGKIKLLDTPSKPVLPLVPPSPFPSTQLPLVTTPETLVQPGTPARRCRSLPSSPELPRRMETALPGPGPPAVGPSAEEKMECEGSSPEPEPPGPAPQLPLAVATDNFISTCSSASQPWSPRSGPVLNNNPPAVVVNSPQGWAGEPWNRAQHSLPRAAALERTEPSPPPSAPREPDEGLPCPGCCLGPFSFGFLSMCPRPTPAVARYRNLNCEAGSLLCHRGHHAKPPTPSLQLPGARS

[4] = test system: Leucine-rich repeat serine/threonine-protein kinase 2 (Homo sapiens), Q5S007 [G2019S]; assay: (§1) Selectivity interaction (KinomeScan (DiscoverX)) EUB0000666a LRRK2; conditions: at 10 µM
[5] = molecular target: Leucine-rich repeat serine/threonine-protein kinase 2 (Homo sapiens, UniProt Q5S007); assay: as §1; conditions: at 10 µM
[6] = molecular target: Mitogen-activated protein kinase kinase kinase kinase 4 (Homo sapiens, UniProt O95819); assay: Selectivity interaction (KinomeScan (DiscoverX)) EUB0000666a MAP4K4; conditions: at 10 µM
Chain of Mitogen-activated protein kinase kinase kinase kinase 4 (O95819 2-1239 limits assumed): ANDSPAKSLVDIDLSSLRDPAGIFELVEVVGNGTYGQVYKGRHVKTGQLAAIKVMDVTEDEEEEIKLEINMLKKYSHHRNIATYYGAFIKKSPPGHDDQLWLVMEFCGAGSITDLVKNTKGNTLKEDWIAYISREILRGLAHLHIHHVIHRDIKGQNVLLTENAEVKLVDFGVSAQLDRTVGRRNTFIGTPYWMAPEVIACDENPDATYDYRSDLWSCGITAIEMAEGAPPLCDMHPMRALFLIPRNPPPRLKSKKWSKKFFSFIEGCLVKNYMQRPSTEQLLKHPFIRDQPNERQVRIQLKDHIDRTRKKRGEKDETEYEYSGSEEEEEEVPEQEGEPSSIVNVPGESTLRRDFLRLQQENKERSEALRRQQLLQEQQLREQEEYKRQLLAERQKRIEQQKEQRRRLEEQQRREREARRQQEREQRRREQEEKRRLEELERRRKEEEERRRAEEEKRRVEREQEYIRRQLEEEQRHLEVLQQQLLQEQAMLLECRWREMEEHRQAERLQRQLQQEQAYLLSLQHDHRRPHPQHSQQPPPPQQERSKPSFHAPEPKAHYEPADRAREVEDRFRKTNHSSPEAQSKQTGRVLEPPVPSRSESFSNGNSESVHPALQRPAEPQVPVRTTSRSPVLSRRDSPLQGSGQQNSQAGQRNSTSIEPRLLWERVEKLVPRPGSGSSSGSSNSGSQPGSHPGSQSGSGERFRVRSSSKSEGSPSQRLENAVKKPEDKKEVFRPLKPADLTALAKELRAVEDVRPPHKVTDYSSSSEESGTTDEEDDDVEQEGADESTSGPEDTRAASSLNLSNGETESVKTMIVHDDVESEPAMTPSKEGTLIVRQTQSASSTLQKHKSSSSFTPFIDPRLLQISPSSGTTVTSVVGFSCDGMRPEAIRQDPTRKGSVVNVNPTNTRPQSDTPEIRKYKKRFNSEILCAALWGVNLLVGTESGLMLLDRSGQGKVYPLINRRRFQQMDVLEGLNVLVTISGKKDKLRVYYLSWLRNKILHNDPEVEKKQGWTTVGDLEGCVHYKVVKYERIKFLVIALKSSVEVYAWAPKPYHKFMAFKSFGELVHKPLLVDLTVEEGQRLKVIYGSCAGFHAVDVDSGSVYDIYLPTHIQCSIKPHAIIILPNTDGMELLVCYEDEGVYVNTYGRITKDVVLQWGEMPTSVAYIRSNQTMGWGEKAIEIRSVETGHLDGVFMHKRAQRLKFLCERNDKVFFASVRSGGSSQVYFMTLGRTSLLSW

[7] = molecular target: T2, Rhodopsin kinase GRK7 (Homo sapiens) (UniProt Q8WTQ7); assay: Selectivity interaction (Kinase panel (Z-LYTE Assay)) EUB0001632a GRK7; conditions: at 10 µM
T2 sequence (whole entry): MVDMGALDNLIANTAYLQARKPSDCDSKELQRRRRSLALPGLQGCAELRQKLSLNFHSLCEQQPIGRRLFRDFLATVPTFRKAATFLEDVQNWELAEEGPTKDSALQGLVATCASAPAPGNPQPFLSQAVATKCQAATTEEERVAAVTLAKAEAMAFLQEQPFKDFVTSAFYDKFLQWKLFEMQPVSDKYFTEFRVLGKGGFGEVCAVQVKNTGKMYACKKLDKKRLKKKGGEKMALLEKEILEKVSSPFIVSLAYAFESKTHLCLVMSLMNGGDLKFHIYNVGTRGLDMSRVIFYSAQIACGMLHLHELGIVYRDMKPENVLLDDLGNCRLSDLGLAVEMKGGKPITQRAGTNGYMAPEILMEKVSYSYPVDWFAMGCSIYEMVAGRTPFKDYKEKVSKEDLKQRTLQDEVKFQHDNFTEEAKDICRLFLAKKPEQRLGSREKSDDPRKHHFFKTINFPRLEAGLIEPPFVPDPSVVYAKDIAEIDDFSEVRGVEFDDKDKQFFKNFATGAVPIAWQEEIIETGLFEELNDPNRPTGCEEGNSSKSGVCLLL

[8] = molecular target: Ribosomal protein S6 kinase beta-1 (Homo sapiens, UniProt P23443); assay: Selectivity interaction (ActivX KiNativ screen (kinase selectivity in THP-1 cell lysates)) EUB0000639a RPS6KB1; assay type: subcellular; conditions: lysate
Chain of Ribosomal protein S6 kinase beta-1 (P23443 whole entry, looked up): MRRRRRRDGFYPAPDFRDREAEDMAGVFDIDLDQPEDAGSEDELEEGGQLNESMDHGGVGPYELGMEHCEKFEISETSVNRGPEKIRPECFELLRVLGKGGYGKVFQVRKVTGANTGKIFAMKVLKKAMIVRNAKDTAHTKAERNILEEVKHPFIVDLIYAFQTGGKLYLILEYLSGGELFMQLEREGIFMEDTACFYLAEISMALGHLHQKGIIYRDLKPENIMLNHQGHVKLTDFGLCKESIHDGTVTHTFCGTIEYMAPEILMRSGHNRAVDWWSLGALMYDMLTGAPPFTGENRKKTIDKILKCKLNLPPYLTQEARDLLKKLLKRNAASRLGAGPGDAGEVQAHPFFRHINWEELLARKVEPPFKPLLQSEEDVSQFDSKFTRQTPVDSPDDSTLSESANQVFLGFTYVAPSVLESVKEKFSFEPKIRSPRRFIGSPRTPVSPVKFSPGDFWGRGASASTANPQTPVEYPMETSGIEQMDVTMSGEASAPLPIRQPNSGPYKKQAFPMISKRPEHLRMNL

[9] = molecular target: T3, Serine/threonine-protein kinase Nek11 (Homo sapiens) (UniProt Q8NG66); assay: Selectivity interaction (KinomeScan (DiscoverX)) EUB0000607a NEK11; conditions: at 10 µM
T3 sequence (whole entry): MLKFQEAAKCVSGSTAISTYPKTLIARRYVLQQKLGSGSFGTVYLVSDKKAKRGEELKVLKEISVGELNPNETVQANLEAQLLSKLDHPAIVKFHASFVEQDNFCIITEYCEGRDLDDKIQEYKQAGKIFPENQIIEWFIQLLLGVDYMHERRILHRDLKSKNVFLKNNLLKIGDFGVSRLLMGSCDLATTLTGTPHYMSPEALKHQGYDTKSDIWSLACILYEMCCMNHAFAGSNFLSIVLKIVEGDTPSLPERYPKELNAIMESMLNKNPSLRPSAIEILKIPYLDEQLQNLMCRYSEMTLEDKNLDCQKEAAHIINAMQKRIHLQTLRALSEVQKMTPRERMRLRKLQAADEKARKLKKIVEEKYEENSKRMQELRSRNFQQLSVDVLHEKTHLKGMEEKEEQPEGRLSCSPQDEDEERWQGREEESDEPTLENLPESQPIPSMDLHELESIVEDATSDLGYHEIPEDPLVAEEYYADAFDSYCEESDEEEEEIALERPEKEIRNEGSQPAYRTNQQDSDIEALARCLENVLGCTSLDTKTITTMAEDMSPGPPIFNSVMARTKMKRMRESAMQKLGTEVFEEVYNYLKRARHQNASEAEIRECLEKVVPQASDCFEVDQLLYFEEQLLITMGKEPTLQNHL

[10] = molecular target: Transient receptor potential cation channel subfamily M member 6 (Homo sapiens) (UniProt Q9BX84); assay: Selectivity interaction (KinomeScan (DiscoverX)) EUB0000607a TRPM6; conditions: at 10 µM
Chain of Transient receptor potential cation channel subfamily M member 6 (Homo sapiens) (Q9BX84 whole entry): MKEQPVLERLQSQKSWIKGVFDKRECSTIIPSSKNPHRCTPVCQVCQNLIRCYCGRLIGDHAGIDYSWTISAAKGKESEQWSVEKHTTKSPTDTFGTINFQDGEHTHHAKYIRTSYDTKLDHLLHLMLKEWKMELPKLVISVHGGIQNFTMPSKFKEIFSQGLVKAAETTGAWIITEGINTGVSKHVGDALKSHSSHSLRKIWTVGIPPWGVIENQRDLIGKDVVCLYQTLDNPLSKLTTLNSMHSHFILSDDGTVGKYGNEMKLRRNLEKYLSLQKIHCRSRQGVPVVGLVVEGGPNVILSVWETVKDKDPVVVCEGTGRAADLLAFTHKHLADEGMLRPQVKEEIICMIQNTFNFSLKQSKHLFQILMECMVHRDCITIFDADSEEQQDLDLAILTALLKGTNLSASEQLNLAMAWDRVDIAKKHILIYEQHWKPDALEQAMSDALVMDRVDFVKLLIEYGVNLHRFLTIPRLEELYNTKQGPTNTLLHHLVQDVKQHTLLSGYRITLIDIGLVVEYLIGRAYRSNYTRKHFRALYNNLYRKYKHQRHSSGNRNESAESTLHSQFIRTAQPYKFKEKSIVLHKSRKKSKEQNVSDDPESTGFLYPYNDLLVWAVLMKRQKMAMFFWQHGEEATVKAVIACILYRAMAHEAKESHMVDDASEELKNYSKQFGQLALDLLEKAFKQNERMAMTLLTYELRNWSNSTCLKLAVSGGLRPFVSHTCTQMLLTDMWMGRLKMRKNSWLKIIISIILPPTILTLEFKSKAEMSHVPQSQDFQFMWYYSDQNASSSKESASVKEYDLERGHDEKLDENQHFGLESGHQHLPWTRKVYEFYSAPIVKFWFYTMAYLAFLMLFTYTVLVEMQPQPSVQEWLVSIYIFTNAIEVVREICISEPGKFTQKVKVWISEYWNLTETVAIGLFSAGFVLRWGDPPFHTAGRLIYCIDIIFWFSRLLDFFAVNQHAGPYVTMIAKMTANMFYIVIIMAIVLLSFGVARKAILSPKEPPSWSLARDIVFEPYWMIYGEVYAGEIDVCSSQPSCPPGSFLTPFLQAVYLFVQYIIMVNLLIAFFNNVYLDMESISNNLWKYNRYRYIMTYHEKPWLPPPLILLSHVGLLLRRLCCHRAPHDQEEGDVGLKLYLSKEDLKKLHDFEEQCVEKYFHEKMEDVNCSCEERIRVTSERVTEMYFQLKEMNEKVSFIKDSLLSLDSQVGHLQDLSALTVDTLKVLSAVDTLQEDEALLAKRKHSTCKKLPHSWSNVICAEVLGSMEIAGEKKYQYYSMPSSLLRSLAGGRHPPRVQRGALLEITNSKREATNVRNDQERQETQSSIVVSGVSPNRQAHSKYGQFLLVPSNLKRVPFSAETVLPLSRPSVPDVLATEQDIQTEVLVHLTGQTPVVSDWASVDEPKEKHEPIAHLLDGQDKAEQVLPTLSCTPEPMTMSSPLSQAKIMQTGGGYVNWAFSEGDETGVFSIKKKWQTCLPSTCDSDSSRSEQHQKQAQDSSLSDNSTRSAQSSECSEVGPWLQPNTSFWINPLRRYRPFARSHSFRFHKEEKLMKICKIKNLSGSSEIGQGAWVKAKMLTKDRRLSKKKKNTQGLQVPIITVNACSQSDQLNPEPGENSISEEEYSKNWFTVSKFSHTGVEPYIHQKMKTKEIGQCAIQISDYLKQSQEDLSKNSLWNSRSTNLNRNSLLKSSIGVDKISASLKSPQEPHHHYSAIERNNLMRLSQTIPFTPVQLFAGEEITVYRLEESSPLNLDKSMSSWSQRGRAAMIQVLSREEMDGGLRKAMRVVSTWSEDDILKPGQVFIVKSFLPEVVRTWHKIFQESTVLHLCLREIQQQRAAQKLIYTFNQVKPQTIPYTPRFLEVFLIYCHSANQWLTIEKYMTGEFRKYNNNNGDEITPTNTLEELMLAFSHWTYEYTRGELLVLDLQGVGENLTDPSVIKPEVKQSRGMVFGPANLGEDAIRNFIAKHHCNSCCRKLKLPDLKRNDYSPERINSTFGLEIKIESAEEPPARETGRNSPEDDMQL

[11] = molecular target: Tyrosine-protein kinase JAK2 (Homo sapiens, UniProt O60674); assay: Selectivity interaction (Kinase panel (Carna Biosciences)) EUB0001542aTs JAK2; conditions: at 1 µM
[12] = molecular target: Dual specificity tyrosine-phosphorylation-regulated kinase 1A (Homo sapiens, UniProt Q13627); assay: Selectivity interaction (KinomeScan (DiscoverX)) EUB0000618a DYRK1A; conditions: at 10 µM

`C=CC(=O)Nc1cccc(C(=O)Nc2ccc(Nc3cc(-c4[nH]c(SC)nc4C)ccn3)cc2)c1` showed a % of control ([1]; at 1 µM) of 96% and a % of control ([1]; at 5 µM) of 99%.
`Nc1cnc(N2CCc3cc(S(=O)(=O)Nc4c(F)cc(Cl)cc4F)cc(N4CCCC4=O)c32)nc1` [TP-020n] showed a % of control [2] of 100% and a % of control [3] of 100%.
In the case of `O=C(NOC[C@H](O)CO)c1ccc(F)c(F)c1Nc1ccc(I)cc1F`, the % of control [4] is reported as 100%, the % of control [5] is reported as 86% and the % of control [6] is reported as 69%.
`Cn1cc(-n2cnc3c(NCc4nc5cc(Cl)c(Cl)cc5[nH]4)nc(N4CCOCC4)nc32)cn1` was tested, and the % of control [7] was -0.279%.
For `CC[C@@H]1[C@H](F)C(=O)N[C@@H]1COc1nccc2cc(C(N)=O)c(OC)cc12` [ZIMLOVISERTIB], the % of inhibition ([8]; at 0.01 µM) was 17.1%, the % of inhibition ([8]; at 0.04 µM) was -0.8% and the % of inhibition ([8]; at 0.2 µM) was -21.6%. The % of inhibition ([8]; at 1 µM) was -2.2% and the % of inhibition ([8]; at 5 µM) was -3%.
Work on `CNC(=O)Nc1ccc(-c2nc(N3CC4CCC(C3)O4)c3cnn(C4CCC5(CC4)OCCO5)c3n2)cc1` yielded a % of control [9] of 99% and a % of control [10] of 100%.
For `Cn1cc(Nc2nccc(N3CC4CCC(C3)N4C(=O)[C@@H]3CC3(F)F)n2)cn1`, the % of inhibition [11] was 101%.
`O[C@H]1CC[C@H](Nc2ncc3nc(Nc4c(F)cc(F)cc4F)n([C@H]4CCOC4)c3n2)CC1` gave a % of control [12] of 98%.
